# Reference: publication PMC11898565, “Perturbation of Pseudomonas aeruginosa peptidoglycan recycling by anti-folates and design of a dual-action inhibitor” (mBio, 2025)
# Tests used:
# VIM-2 = biological target: T1, VIM-2 (Pseudomonas aeruginosa, UniProt Q9K2N0); assay: in vitro meropenem hydrolysis assay ([…] nm), […] enzyme, […] ZnSO4; assay type: biochemical
# T1 construct: gene blaVIM-2
# NDM-1 = biological target: T2, NDM-1 (Klebsiella pneumoniae, UniProt C7C422); assay: as above; assay type: biochemical
# T2 construct: gene blaNDM-1
# T2 sequence (C7C422 29-270 limits assumed): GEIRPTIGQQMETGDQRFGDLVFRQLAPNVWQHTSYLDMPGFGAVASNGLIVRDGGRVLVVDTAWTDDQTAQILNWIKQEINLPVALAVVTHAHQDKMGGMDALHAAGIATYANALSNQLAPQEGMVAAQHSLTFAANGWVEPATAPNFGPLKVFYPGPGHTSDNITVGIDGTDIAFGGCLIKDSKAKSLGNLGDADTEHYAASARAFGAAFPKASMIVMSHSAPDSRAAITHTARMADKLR
structure (smiles),measurement,setting,value
Nc1ccc(S(=O)(=O)Nc2scnc2C(=O)O)cc1 [MLLB-2201],IC50,VIM-2,14.5 µM
same,IC50,NDM-1,1.8 µM
